Data as given in PubChem BioAssay (NCI).
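Five compound concentrations were applied to cells in 96-well plates for 48 hours; endpoints were derived by simple linear interpolation of the resulting dose-response curve. GI50: concentration for 50% inhibition of growth. At the TGI there is no net growth.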

Columns and labels:
Assay in all cases: NCI-60 cell line screen, 48 h
[1] = tested on: SNB-19 CNS
[2] = tested on: SK-MEL-5 melanoma
[3] = tested on: HOP-62 NSCLC
[4] = tested on: UO-31 renal
[5] = tested on: A549 NSCLC
[6] = tested on: KM12 colon
[7] = tested on: HCT-15 colon
[8] = tested on: MOLT-4 leukemia
[9] = tested on: NCI-H226 lung
[10] = tested on: T-47D breast

| Compound | GI50 [1] [nM] | TGI [1] [µM] | GI50 [2] [nM] | TGI [2] [µM] | GI50 [3] [µM] | TGI [3] [µM] | GI50 [4] [µM] | TGI [4] [µM] | GI50 [5] [nM] | TGI [5] [µM] | GI50 [6] [µM] | TGI [6] [µM] | GI50 [7] [nM] | TGI [7] [µM] | GI50 [8] [µM] | TGI [8] [µM] | GI50 [9] [µM] | TGI [9] [µM] | GI50 [10] [µM] | TGI [10] [µM] |
| --- | --- | --- | --- | --- | --- | --- | --- | --- | --- | --- | --- | --- | --- | --- | --- | --- | --- | --- | --- | --- |
| C=C1CCC2C3(C)COC(c4ccc(Cl)cc4)OC3CCC2(C)C1/C=C/C1=CCOC1=O (stereo not given) | 15900 | 88.4 | 1880 | 31.1 | 26.8 | > 100 | > 100 | > 100 | 2370 | 32.5 | 9.19 | > 100 | 4790 | > 100 | 4.5 | > 100 | 7.06 | > 100 | 0.821 | 21.4 |
| CCOC(=O)c1cc(-c2ccc(OC)c(OC)c2)[nH]c1N/N=C/c1c(Cl)cccc1Cl | 2600 | 34.2 | 956 | 8.33 | 2.51 | 14.5 | 4.32 | 37.6 | 3060 | > 100 | 0.636 | 9.98 | 2380 | 10.7 | 3.27 | > 80.9 | 1.81 | 9.36 | 5.98 | 55.4 |
| O=C(NNC(=S)Nc1ccccc1)c1ccccn1 | 2950 | > 100 | 2110 | > 100 | 5.52 | > 100 | 0.95 | 16.9 | 1560 | 47.7 | 3.9 | > 100 | 1130 | > 100 | 2.84 | > 100 | 3.3 | > 100 | 6.55 | > 100 |
| CC(CCCC1SCC2NC(=O)NC21)C(=O)O (stereo not given) |  | > 100 |  | > 100 |  | > 100 |  | > 100 |  | > 100 |  | > 100 |  | > 100 |  | > 100 |  | > 100 |  | > 100 |
| CC(=O)NC(CCCCN(Cc1ccccc1)C(=O)N(CCCl)N=O)C(=O)NCc1ccccc1 (stereo not given) |  | 60.4 |  | > 100 |  | 47 |  | 57.2 |  | 49.5 |  | 63.7 |  | > 100 |  | > 82.1 |  | > 96.7 |  | 36.7 |
| N#Cc1c(N)nc(N2CCSCC2)c(C#N)c1-c1ccc(O)cc1 | 27900 | 98.9 | 12700 | 28 | 12.6 | 28.3 | 23.2 | > 100 | 30700 | > 100 | 20.2 | 92.2 | 17600 | 54.1 | 11.6 | 34.5 | 21.9 | 58.5 | 12.8 | 85.8 |
| O=C(Nc1cccnc1)c1ccc2ccc3ccc(C(=O)Nc4cccnc4)nc3c2n1 | 84.5 | > 100 | 271 | > 100 | 0.13 | > 100 | > 100 | > 100 | 135 | > 100 | 0.0546 | > 100 | 51.8 | > 100 | 0.419 | > 100 | 0.128 | > 100 | 0.257 | > 100 |
| COc1cc(-c2ccc(NC(=O)NC3CC3)c(OC)c2)ccc1NC(=O)NC1CC1 | 8870 | > 100 | 4840 | > 100 | 28.8 | > 100 | 5.27 | > 100 | 3890 | > 100 | 5.28 | > 100 | 1100 | > 100 | 3.33 | > 100 | 7.25 | > 100 | > 100 | > 100 |
| O=C1C(=O)N(c2cccc(C(F)(F)F)c2)C(=O)C(=O)C1c1nc2ccccc2s1 |  | > 100 |  | > 100 |  | > 100 |  | > 100 |  | > 100 |  | > 100 |  | > 100 |  | > 100 |  | > 100 |  | > 100 |
| CCN(CC)CC(C)(C)C(=O)/C=C/c1ccc(/C=C/C(=O)C(C)(C)CN(CC)CC)cc1 |  | 4.21 |  | 3.7 |  | 5.01 |  | 4.96 |  | 5.76 |  | 2.16 |  | 0.901 |  | 0.546 |  | 6.97 |  | 3.21 |
| CC(O)CN1c2ccccc2Sc2ccc(Cl)cc21 (stereo not given) |  | > 10 |  | > 10 |  | > 10 |  | > 10 |  | > 10 |  | > 10 |  | > 10 |  | > 10 |  | > 10 |  | > 10 |
| CCCCCCN(C)Cc1ccc(OCCOc2ccc(CN(C)CCCCCC)cc2)cc1 | 1710 | 3.87 | 1360 | 2.66 | 1.48 | 3.15 | 1.04 | 5.01 | 1400 | 2.91 | 1.47 | 2.84 | 984 | 2.83 | 2.48 | 10.5 | 1.53 | 3.19 | 1.32 | 3.26 |
